This is an account of results in the Deep4Chem optical property database.

A short description of the series: photoluminescence quantum yield (fraction); solvent given as SMILES.

With `Cc1ccc2ccc3c(C)ccc4ccc1c2c43`, the photoluminescence quantum yield was found to be 0.52 (in CCCCCC), 0.56 (in CO) and 0.4 (in ClCCl).

On to `Cc1cc(C)c(B(c2c(C)cc(C)cc2C)N2c3ccccc3C(C)(C)c3ccccc32)c(C)c1`, for which the photoluminescence quantum yield came out at 0.931 (in C1CCCCC1), 0.802 (in Cc1ccccc1) and 0.9 (in ClCCl).

Compound `O=C1C2=C(O[B-](F)(F)[n+]3c2ccc2ccccc23)c2ccc(N3CCOCC3)c3cccc1c23` displayed a photoluminescence quantum yield (in C1CCOC1) of 0.55; a photoluminescence quantum yield (in CC#N) of 0.49; a photoluminescence quantum yield (in CCO) of 0.46; a photoluminescence quantum yield (in CO) of 0.45; a photoluminescence quantum yield (in ClCCl) of 0.53.

With `CCCCCCCCn1c2ccccc2c(=O)c2ccccc21`, the photoluminescence quantum yield (in CS(C)=O) worked out at 0.66.

On to `C(=C\c1ncccn1)/c1ccc(-c2ccc(N(c3ccccc3)c3ccccc3)cc2)cc1`, for which, for the setting “in ClCCl”, the photoluminescence quantum yield came to 0.6.

`CC(C)c1ccc2ccc3c(C(C)C)ccc4ccc1c2c43`: the photoluminescence quantum yield stood at 0.45 (in CCCCCC), 0.55 (in CO) and 0.39 (in ClCCl).

Consider `CCCCCCN1C(=O)c2cccc3cc(/N=C\c4cn(C)c5ccccc45)cc(c23)C1=O`, for which the photoluminescence quantum yield (in ClC(Cl)Cl) was 0.03.

In turn, `O=Cc1ccc2nc(C#Cc3ccc(N(c4ccccc4)c4ccccc4)cc3)sc2c1` came in with a photoluminescence quantum yield (in Cc1ccccc1) of 1.

For the setting “in ClC(Cl)Cl”, `Cc1ccc(C2=Cc3ccc4ccccc4[n+]3[B-](F)(F)O2)cc1` gave a photoluminescence quantum yield of 0.75.

For `Cc1ccc(C#Cc2ccc3ccc4cccc5ccc2c3c45)cc1`, the photoluminescence quantum yield by setting is: (in CCCCCC) 0.29; (in CCO) 0.3; (in CCOC(C)=O) 0.29; (in ClCCl) 0.38.

Regarding `O=C1OC(=O)C2=C1[Se][C@]13C2=C[C@H](c2ccccc21)c1ccccc13`, the photoluminescence quantum yield (in ClCCl) is 0.62.

Regarding `CNc1cccc2c1C(=O)c1ccccc1-2`, the photoluminescence quantum yield runs as follows: (in C1CCCCC1) 0.042; (in CC#N) 0.065; (in CCO) 0.064; (in c1ccccc1) 0.065.

On to `CN(C)c1ccc2[c](c1)[Sn]([CH3])([CH3])[C]1=CC(=[N+](C)C)C=CC1=C2`, for which, for the setting “in O”, the photoluminescence quantum yield amounted to 0.43.

For the setting “in ClCCl”, `CC(C)[Si](C#Cc1c2cc3ccccc3cc2c(C#Cc2ccccc2)c2cc3ccccc3cc12)(C(C)C)C(C)C` came in with a photoluminescence quantum yield of 0.12.

Under “in O=P(c1ccccc1)(c1ccccc1)c1ccccc1Oc1ccccc1P(=O)(c1ccccc1)c1ccccc1”, `c1ccc(-c2nc(-c3ccccc3)nc(-c3ccc(-n4c5ccccc5c5c6oc7ccccc7c6ccc54)cc3)n2)cc1` came in with a photoluminescence quantum yield of 0.853.

With `CC(C)(C)c1ccc2c(c1)c1cc(C(C)(C)C)ccc1n2-c1c(C#N)c(-n2c3ccc(C(C)(C)C)cc3c3cc(C(C)(C)C)ccc32)c(-n2c3ccc(C(C)(C)C)cc3c3cc(C(C)(C)C)ccc32)c(-n2c3ccc(C(C)(C)C)cc3c3cc(C(C)(C)C)ccc32)c1-n1c2ccc(C(C)(C)C)cc2c2cc(C(C)(C)C)ccc21`, under “in Cc1ccccc1”, the photoluminescence quantum yield worked out at 0.86.

`NC(=O)CC[C@H](/[NH+]=C\C=C1\C=C(C(=O)O)N[C@H](C(=O)O)C1)C(=O)O` had a photoluminescence quantum yield (in CCO) of 0.017; a photoluminescence quantum yield (in CO) of 0.011; a photoluminescence quantum yield (in O) of 0.0073; a photoluminescence quantum yield (in OCC(F)(F)F) of 0.014; a photoluminescence quantum yield (in OCCO) of 0.039.

Consider `CCCCC(CC)COc1ccc2nc(-c3ccc(-c4ccc(OC)cc4)s3)sc2c1` (stereo unspecified), for which, under “in ClCCl”, the photoluminescence quantum yield was determined as 0.83.

With `CCN(CC)c1ccc(/C=C/C2=[O+][B-](F)(F)Oc3c2c(=O)oc2cc(N(CC)CC)ccc32)cc1`, the photoluminescence quantum yield (in C1CCCCC1) came out at 0.46; the photoluminescence quantum yield (in C1COCCO1) is 0.72; the photoluminescence quantum yield (in CC#N) was 0.011; the photoluminescence quantum yield (in CC(C)=O) was 0.021; the photoluminescence quantum yield (in CCO) was 0.044; the photoluminescence quantum yield (in CCOC(C)=O) is 0.16. In addition, the photoluminescence quantum yield by setting is: (in CO) 0.016; (in CS(C)=O) 0.035; (in Cc1ccccc1) 0.93; (in ClC(Cl)Cl) 0.75; (in ClCCl) 0.16; (in OCC(O)CO) 0.36. The photoluminescence quantum yield (in OCCO) came to 0.072.

For the compound `COC(=O)c1noc(-c2ccccc2)c1Cl`, for the setting “in C1CCCCC1”, the photoluminescence quantum yield is 0.368.

Take `CCN1c2ccc(/C=N/Nc3ccccn3)cc2Sc2cc(-c3cccc4ccccc34)ccc21`: the photoluminescence quantum yield reads like this: (in C1CCOC1) 0.2; (in CS(C)=O) 0.35; (in Cc1ccccc1) 0.1; (in ClCCl) 0.3.

In the case of `CC1=CC(C)=[N+]2C1=C(c1c3ccccc3c(C)c3ccccc13)c1c(C)cc(C)n1[B-]2(F)F`, the photoluminescence quantum yield by setting is: (in CC#N) 0.002; (in CCCCCC) 0.91; (in CCO) 0.005; (in CN(C)C=O) 0.003; (in Cc1ccccc1) 0.95; (in ClCCl) 0.011.

In the case of `COc1ccc(-c2cn3cc(C)c[n+]3[n-]2)cc1`, for the setting “in ClCCl”, the photoluminescence quantum yield was 0.025.

On to `CCCC(=O)c1c2c(c(C(=O)CCC)c3c1OC(CC(=O)OC)(C(=O)O)O3)OCO2`, for which the photoluminescence quantum yield runs as follows: (in CC#N) 0.25; (in CCO) 0.12; (in CO) 0.06; (in O) 0.02.

For `FC(F)(F)c1ccc2oc3nc4oc5ccc(N6c7ccccc7Oc7ccccc76)cc5c4cc3c2c1`, the photoluminescence quantum yield (in ClC(Cl)Cl) is 0.055.

For `CC(=O)c1ccc(C#Cc2ccc3c(N(C)C)cc(-c4ccccc4)cc3c2)cc1`, the photoluminescence quantum yield (in ClCCl) was determined as 0.01.

Turning to `Cc1ccc(C2=C3C=CC(c4ccccc4)=[N+]3[B-](F)(F)n3c2ccc3-c2ccccc2)cc1`, the photoluminescence quantum yield stood at 0.31 (in C1CCCCC1); 0.22 (in C1CCOC1); 0.25 (in C1COCCO1); 0.2 (in CCOC(C)=O); 0.21 (in CO); 0.42 (in Cc1ccccc1). Further, under “in ClC(Cl)Cl”, the photoluminescence quantum yield came out at 0.31.

`CC(C)(C)c1ccc(C(C)(C)C)c(N2C(=O)c3cccc4c(-c5ccc(-c6ccc(N(c7ccccc7)c7ccccc7)cc6)s5)ccc(c34)C2=O)c1`: the photoluminescence quantum yield (in Cc1ccccc1) amounted to 0.56.

`COc1cccc(-c2nc3c([nH]2)C2=CC(=O)S[C@]2(C)[C@@]2(C)SC(=O)C=C32)c1OC`: under “in CC#N”, the photoluminescence quantum yield came to 0.12.

As to `COc1ccccc1`, the photoluminescence quantum yield (in C1CCCCC1) came to 0.36.

The compound `N#Cc1nc(N(Cc2ccccc2F)Cc2ccccc2F)c(C#N)nc1N(Cc1ccccc1F)Cc1ccccc1F` yielded a photoluminescence quantum yield (in ClC(Cl)Cl) of 0.79.

As for `CCCCN(CCCC)c1ccc(C#Cc2cc(C#Cc3ccc(N(CCCC)CCCC)cc3)c(C#Cc3cc(C(F)(F)F)cc(C(F)(F)F)c3)cc2C#Cc2cc(C(F)(F)F)cc(C(F)(F)F)c2)cc1`, the photoluminescence quantum yield (in ClCCl) was determined as 0.34.
